A word on the melting point: it is the temperature, or range, at which the solid turns liquid. Take `CC(=O)NCc1ccc(N/C(=C2\C(=O)Nc3ccccc32)c2ccccc2)cc1` [Example 56, (Z)-3-[1-(4-acetylaminomethyl-phenylamino)-1-phenyl-methylidene]-2-indolinone]: the melting point lay in the range of 207 to 210 °C. The figure for `CC(=O)NCc1cccc(N/C(=C2\C(=O)Nc3ccc([N+](=O)[O-])cc32)c2ccccc2)c1` [Example 138, (Z)-3-[1-(3-acetylaminomethyl-phenylamino)-1-phenyl-methylidene]-5-nitro-2-indolinone] is 238 °C; for `CCS(=O)(=O)N(CC(=O)N(C)CCN(C)C)c1ccc(N/C(=C2\C(=O)Nc3ccc([N+](=O)[O-])cc32)c2ccccc2)cc1` [Example 296, (Z)-3-{1-[4-(N—((N-(2-dimethylaminoethyl)-N-methyl-amino)-carbonylmethyl)-N-ethylsulphonyl-amino)-phenylamino]-1-phenyl-methylidene}-5-nitro-2-indolinone] it is 117 °C.

For `CC(=O)NCc1ccc(/C(Nc2cccc(N(CCCN(C)C)S(C)(=O)=O)c2)=C2/C(=O)Nc3ccccc32)cc1` [Example 425, (Z)-3-{1-[3-(N-(3-dimethylaminopropyl)-N-methylsulphonyl-amino)-phenylamino]-1-(4-acetylaminomethyl-phenyl)-methylidene}-2-indolinone], the melting point worked out at 208 °C. Regarding `O=C1Nc2ccc([N+](=O)[O-])cc2/C1=C(/Nc1cccc(CN2CCCCC2)c1)c1ccccc1` [Example 108, (Z)-3-[1-(3-piperidinomethyl-phenylamino)-1-phenyl-methylidene]-5-nitro-2-indolinone], the melting point was 214 to 215 °C. `CN(C)C(=O)CN(c1ccc(N/C(=C2\C(=O)Nc3ccccc32)c2ccccc2)cc1)S(=O)(=O)Cc1ccccc1` [Example 207, (Z)-3-{1-[4-(N-dimethylaminocarbonylmethyl-N-benzylsulphonyl-amino)-phenylamino]-1-phenyl-methylidene}-2-indolinone] gave a melting point of 133 to 135 °C. In the case of `COc1ccccc1N/C(=C1\C(=O)Nc2ccccc21)c1ccccc1` [Example 4, (Z)-3-[1-(2-methoxy-phenylamino)-1-phenyl-methylidene]-2-indolinone], the melting point came to 237 °C.

The molecule `O=C1Nc2ccccc2/C1=C(/Nc1cccc(NC(=O)C(F)(F)F)c1)c1ccccc1` [Example 33, (Z)-3-[1-(3-trifluoroacetylamino-phenylamino)-1-phenyl-methylidene]-2-indolinone] gave a melting point of 273 to 276 °C. In turn, `CC(=O)NCc1ccc(/C(Nc2cccc(N(CCN(C)C)S(C)(=O)=O)c2)=C2/C(=O)Nc3ccccc32)cc1` [Example 423, (Z)-3-{1-[3-(N-(2-dimethylaminoethyl)-N-methylsulphonyl-amino)-phenylamino]-1-(4-acetylaminomethyl-phenyl)-methylidene}-2-indolinone] returned a melting point of 180 °C. The figure for `CN(c1ccc(N/C(=C2\C(=O)Nc3ccc([N+](=O)[O-])cc32)c2ccccc2)cc1)S(C)(=O)=O` [Example 197, (Z)-3-{1-[4-(N-methyl-N-methylsulphonyl-amino)-phenylamino]-1-phenyl-methylidene}-5-nitro-2-indolinone] is 306 to 308 °C; for `CN(C)C(=O)C1CCN(Cc2ccc(N/C(=C3\C(=O)Nc4ccc([N+](=O)[O-])cc43)c3ccccc3)cc2)CC1` [Example 249, (Z)-3-{1-[4-(4-dimethylaminocarbonyl-piperidinomethyl)-phenylamino]-1-phenyl-methylidene}-5-nitro-2-indolinone] it is 272 to 273 °C; for `CCOC(=O)CN(c1ccc(N/C(=C2\C(=O)Nc3ccccc32)c2ccccc2)cc1)S(=O)(=O)CC` [Example 297, (Z)-3-{1-[4-(N-ethoxycarbonylmethyl-N-ethylsulphonyl-amino)-phenylamino]-1-phenyl-methylidene}-2-indolinone] it is 228 to 230 °C. On to `Cc1cccc(/C(Nc2ccc(CN(C)C)cc2)=C2/C(=O)Nc3ccc([N+](=O)[O-])cc32)c1` [Example 214, (Z)-3-[1-(4-dimethylaminomethyl-phenylamino)-1-(m-tolyl)-methylidene]-5-nitro-2-indolinone], for which the melting point was found to be 210 °C. The figure for `O=C1Nc2ccc([N+](=O)[O-])cc2/C1=C(/Nc1ccc(CN2CCC(Cc3ccccc3)CC2)cc1)c1ccccc1` [Example 172, (Z)-3-{1-[4-(4-phenylmethyl-piperidinomethyl)-phenylamino]-1-phenyl-methylidene}-5-nitro-2-indolinone] is 252 °C; for `CC(=O)N(C)c1cccc(N/C(=C2\C(=O)Nc3ccccc32)c2ccccc2)c1` [Example 38, (Z)-3-{1-[3-(N-acetyl-N-methylamino)-phenylamino]-1-phenyl-methylidene}-2-indolinone] it is 237 to 239 °C. The molecule `CCS(=O)(=O)N(CC(=O)N(C)CCN(C)C)c1ccc(N/C(=C2\C(=O)Nc3ccccc32)c2ccccc2)cc1` [Example 302, (Z)-3-{1-[4-(N—((N-(2-dimethylaminoethyl)-N-methyl-amino)-carbonylmethyl)-N-ethylsulphonyl-amino)-phenylamino]-1-phenyl-methylidene}-2-indolinone] displayed a melting point of 170 to 172 °C. The figure for `CN(C)CCN(C)S(=O)(=O)c1ccc(N/C(=C2\C(=O)Nc3ccccc32)c2ccccc2)cc1` [Example 400, (Z)-3-{1-[4-(N-(2-dimethylaminoethyl)-N-methyl-aminosulphonyl)-phenylamino]-1-phenyl-methylidene}-2-indolinone] is 200 to 203 °C; for `NCc1ccc(N/C(=C2\C(=O)Nc3ccccc32)c2ccccc2)cc1` [Example 55, (Z)-3-[1-(4-aminomethyl-phenylamino)-1-phenyl-methylidene]-2-indolinone] it is 236 to 237 °C; for `CN(Cc1ccc(N/C(=C2\C(=O)Nc3ccc([N+](=O)[O-])cc32)c2ccccc2)cc1)c1ncccn1` [Example 272, (Z)-3-{1-[4-((N-methyl-N-pyrimidin-2-yl-amino)-methyl)-phenylamino]-1-phenyl-methylidene}-5-nitro-2-indolinone] it is 236 to 239 °C.

As to `CN(CC(=O)O)S(=O)(=O)c1ccc(N/C(=C2\C(=O)Nc3ccccc32)c2ccccc2)cc1` [Example 409, (Z)-3-{1-[4-(N-carboxymethyl-N-methyl-aminosulphonyl)-phenylamino]-1-phenyl-methylidene}-2-indolinone], the melting point was 237 °C (dec.).

In turn, `CCN(CC)CCc1ccc(N/C(=C2\C(=O)Nc3ccc([N+](=O)[O-])cc32)c2ccccc2)cc1` [Example 130, (Z)-3-{1-[4-(2-diethylamino-ethyl)-phenylamino]-1-phenyl-methylidene}-5-nitro-2-indolinone] displayed a melting point of 167 to 168 °C.

`CNC(=N)c1cccc(N/C(=C2\C(=O)Nc3ccccc32)c2ccccc2)c1` [Example 65, (Z)-3-{1-[3-(N-methylcarbamimidoyl)-phenylamino]-1-phenyl-methylidene}-2-indolinone] had a melting point of 248 to 250 °C. Then `CN(C(=O)CN)c1ccc(N/C(=C2\C(=O)Nc3ccccc32)c2ccccc2)cc1` [Example 366, (Z)-3-{1-[4-(N-aminomethylcarbonyl-N-methyl-amino)-phenylamino]-1-phenyl-methylidene}-2-indolinone], with 238 to 239 °C.

Regarding `CC(=O)N(C)c1ccc(N/C(=C2\C(=O)Nc3ccc([N+](=O)[O-])cc32)c2ccccc2)cc1` [Example 98, (Z)-3-{1-[4-(N-acetyl-N-methyl-amino)-phenylamino]-1-phenyl-methylidene}-5-nitro-2-indolinone], the melting point is 305 to 307 °C. On to `O=C1Nc2ccc([N+](=O)[O-])cc2/C1=C(/Nc1ccc(CCN2CCCCCC2)cc1)c1ccccc1` [Example 265, (Z)-3-{1-[4-(2-hexamethyleneimino-ethyl)-phenylamino]-1-phenyl-methylidene}-5-nitro-2-indolinone], for which the melting point fell in the range of 217 to 222 °C.

Consider `CNCc1ccc(N/C(=C2\C(=O)Nc3ccc([N+](=O)[O-])cc32)c2ccccc2)cc1.Cl`, for which the melting point turned out to be 351 °C. In turn, `CCCCS(=O)(=O)N(CCN(C)C)c1ccc(N/C(=C2\C(=O)Nc3ccccc32)c2ccccc2)cc1` [Example 453, (Z)-3-[1-(4-(N-(2-dimethylaminoethyl)-N-butylsulphonyl-amino)-phenylamino)-1-phenyl-methylidene]-2-indolinone] showed a melting point of 225 to 227 °C. Then `COC(=O)Cc1ccc(N/C(=C2\C(=O)Nc3ccc([N+](=O)[O-])cc32)c2ccccc2)cc1` [Example 180, (Z)-3-[1-(4-methoxycarbonylmethyl-phenylamino)-1-phenyl-methylidene]-5-nitro-2-indolinone], with 238 to 240 °C; and `CNC(=O)C1CCN(Cc2ccc(N/C(=C3\C(=O)Nc4ccc([N+](=O)[O-])cc43)c3ccccc3)cc2)CC1` [Example 248, (Z)-3-{1-[4-(4-methylaminocarbonyl-piperidinomethyl)-phenylamino]-1-phenyl-methylidene}-5-nitro-2-indolinone], with 263 to 265 °C; and `CCCCN(CCCC)Cc1ccc(N/C(=C2\C(=O)Nc3ccc([N+](=O)[O-])cc32)c2ccccc2)cc1` [Example 165, (Z)-3-[1-(4-Dibutylaminomethyl-phenylamino)-1-phenyl-methylidene]-5-nitro-2-indolinone], with 175 °C. Consider `C[C@@H](NC(=O)OC(C)(C)C)c1ccc(N/C(=C2\C(=O)Nc3ccc([N+](=O)[O-])cc32)c2ccccc2)cc1` [Example 125, (Z,R)-3-{1-[4-(1-tert.butoxycarbonylamino-ethyl)-phenylamino]-1-phenyl-methylidene}-5-nitro-2-indolinone], for which the melting point is 247 to 249 °C.

The values are drawn from patent US6855710B2, “Substituted indolines with an inhibitory effect on various kinases and complexes of CDKs” (Boehringer Ingelheim Pharma KG, priority 1998, dated 2005).
